{
  "source": "patent US20070122908A1",
  "about": "“Molecular Delivery to Cells Using Aspirin-Related Compounds” (UNIVERSITY OF SOUTH FLORIDA, priority 2005, published 2007)",
  "key": {"[1]": {"system": "B16-F10 cells", "assay": "Delivery of calcein to B16-F10 cells with or without electroporation, spectrofluorometric reading of cell lysate", "assay_type": "cell-based, mouse", "procedure": "The effects of salicylic acid (“SA”) on the delivery of calcein to B16-F10 cells using electroporation was studied. Three identical experiments were carried out. […] All cells were exposed to 120 μM calcein. In addition, cells in some samples were exposed to one of three different concentrations of salicyclic acid (1 mM, 5 mM, or 10 mM) with pH values of 6.70, 6.32, and 3.85, respectively. Pulses with one of four different field strengths were also applied (500, 750, 1000, or 1385 V/cm) to certain samples. Salicyclic acid concentration and field strength were experimental variables; however, some cells were not exposed to applied fields or salicyclic acid for comparison/control purposes.\nDelivery of calcein using aspirin (acetylsalicylic acid or “ASA”) was studied. […] The same range of pulsing conditions was used and the variables were identical for the sample treatment.\nCalcein delivery by electroporation using acetic acid (“AA”) as an effector was studied. The set of 3 replicate experiments included three concentrations of AA, each with a different pH (4.40, 5.36, or 6.42). The pH values of the three solutions of acetic acid were matched to those of ASA for the purpose of determining if AA is the derivative in ASA that enhances the delivery of calcein. The three concentrations of the AA solutions in PBS were similar, which was about 0.15%, and varied slightly in order to establish the desired pH value. In addition, one of three electric field strengths were applied to cells (500, 750. or 1000 V/cm). Some cells were not exposed to applied fields or any concentration of AA for purposes of comparison and control.\nB16-F10 mouse melanoma cells (ATCC#:CRL-6475) were obtained and grown in McCoy's Media (Cellgro Mediatech, Inc., Herndon. VA), adjusted to contain 10% fetal bovine serum (Cellgro Mediatech, Inc.) and (25 mg) gentamicin 50 mg/mL (Mediatech, Inc.) and were incubated in 5% CO2 at 37° C. Serum was essential for many reasons. It provided hormonal factors that stimulated cell growth and function. It also contains essential proteins, amino acids, minerals, and lipids. Gentamicin is an antibiotic used as a preventative measure to help reduce microbial growth and contamination.\nCells were prepared for experiments by first harvesting by trypsinization and then washing 3 times by centrifugation. Cells were centrifuged (5810R, Eppendorf, Westbury, N.Y.) at 220× g for 5 minutes at 37° C. and resuspended in approximately 2.5 ml of PBS for each wash. A sample of cells was then diluted in 0.9% sodium chloride (APP, Schaumburg, Ill.) and 0.4% trypan blue stain (Cellgro Mediatech, Inc.). Trypan blue is an indicator in which the membranes of non-viable cells are penetrated and can be distinguished from the viable cells. Using a hemacytometer (Hausser Scientific, Horsham, Pa.), the viable and nonviable cells were counted. The number of cells per milliliter was computed by multiplying the number of cells counted per square millimeter×the dilution (when used)×10,000 (conversion factor).\nExperiments were conducted using 48-well polystyrene tissue culture plates (BD Falcon. Franklin Lakes, N.J.). Each well held approximately 1.4 ml of liquid with a surface area of 0.75 cm^2. The depth and diameter of each well was 18 mm and 10 mm, respectively.\nUnder aseptic conditions, 150μl of the sterile gelatin solution was added to each well and let stand for 1 hour. The gelatin was then aspirated from each of the wells and air dried for 5 minutes. 500μl of McCoy's Media was added to the treated wells in addition to 7.5×10^4 viable cells and incubated at 37° C. for 18 hours before treatment.\nThe electrode shown in FIG. 2 was specially designed for all experimentation in these studies and was similar to the design mentioned above. The electrode consisted of 6 stainless steel electrodes, equally spaced at 60° intervals around a 0.7 cm diameter circle."}, "[2]": {"system": "B16-F10 cells", "details": "mouse, pH 4.4", "description": "The trypan blue test was used to determine membrane integrity. Trypan blue dye will only penetrate into cells that have porous membranes. […] The protocol used was similar to the methods described for the delivery of calcein. After one hour of exposure at 37° the cells were washed three times with 500 μl aliquots of PBS. Liquid from the last wash was carefully aspirated, and then filled with 500μl of growth media.\nFor the purpose of this study, optimal testing conditions were used to treat B16-F10 cells to conclude the extent of reversible permeation.\nDue to the large surface area of the wells, the cells were physically counted by observing 7 out of 21 fields of view along the horizontal diameter of each well at a magnification of 400× (see FIG. 5). The recovery of the membranes after exposure to each treating condition was expressed as a percentage of live cells remaining after each hour.\nIn order to distinguish the viable cells from the dead, a 0.4% trypan blue solution in PBS was used. 150 μl of the solution was added to each well for 1 minute, and then the cells were counted using the described method. Each test condition was studied at 1 hour intervals ranging from 1 hour to 4 hours. In addition, membrane recovery was examined 24 hours post treatment."}},
  "data": [
    {"compound": "O=C(O)c1ccccc1O", "note": "[SA, salicylic acid]", "values": [
      {"measurement": "calcein delivery compared to samples exposed to calcein alone", "setting": "[1]; 1, 5 or 10 mM SA (pH 6.70, 6.32, 3.85), 120 μM calcein, no applied electric field", "result": "did not augment the delivery"},
      {"measurement": "fluorescent magnitude compared to samples treated with calcein and pulses (no salicylic acid)", "setting": "[1]; 1, 5 or 10 mM SA, 120 μM calcein, electrical pulses 500-1385 V/cm", "result": "not significantly higher"}
    ]},
    {"compound": "CC(=O)O", "note": "[AA, acetic acid]", "values": [
      {"measurement": "fluorescence magnitude compared to samples not exposed to AA", "setting": "[1]; AA about 0.15% in PBS, pH 5.36 or 6.42, with or without pulses", "result": "failed to show a significant increase"},
      {"measurement": "fluorescent data compared to AA alone (no pulses)", "setting": "[1]; AA lowest pH solution (pH 4.40) in combination with electric fields", "result": "even higher"},
      {"measurement": "mean fluorescence magnitude", "setting": "[1]; AA pH 4.40, 500 V/cm", "result": 12.77},
      {"measurement": "increase in fluorescence magnitude vs samples not exposed to AA at same field", "setting": "[1]; AA pH 4.40, 500 V/cm, p<0.0001", "result": 3, "unit": "fold"},
      {"measurement": "increase in fluorescence magnitude vs samples not exposed to AA at same field", "setting": "[1]; AA pH 4.40, 750 V/cm, p=0.0002", "result": 2.25, "unit": "fold"},
      {"measurement": "increase in fluorescence magnitude vs samples not exposed to AA at same field", "setting": "[1]; AA pH 4.40, 1000 V/cm, p<0.0001", "result": 3.5, "unit": "fold"},
      {"measurement": "increase in mean fluorescence vs control (no AA or pulses)", "setting": "[1]; AA pH 4.40 alone, no pulses", "result": 8.2, "unit": "fold"},
      {"measurement": "mean fluorescence magnitude", "setting": "[1]; AA pH 4.40 alone, no pulses", "result": 1.04},
      {"measurement": "decline in the number of cells with intact membranes", "setting": "[2]; 1 h", "result": 17, "unit": "%"},
      {"measurement": "cells that excluded trypan blue dye", "setting": "[2]; 24 h", "result": 86, "unit": "%"},
      {"measurement": "cells with intact membranes", "setting": "[2]; 24 h", "result": 90, "unit": "%"},
      {"measurement": "average membrane integrity", "setting": "[2]", "result": "80-95%"}
    ]},
    {"compound": "CC(=O)Oc1ccccc1C(=O)O", "note": "[ASA, acetylsalicylic acid]", "values": [
      {"measurement": "fluorescence magnitude compared to calcein alone (no ASA)", "setting": "[1]; 1 mM or 5 mM ASA alone (pH 6.39, 5.40), no pulses", "result": "did not result in a significant increase"},
      {"measurement": "increase in fluorescence magnitude relative to calcein at same field (no ASA)", "setting": "[1]; 10 mM ASA, 500 V/cm, p<0.0001", "result": 3.7, "unit": "fold"},
      {"measurement": "increase in fluorescence magnitude relative to calcein at same field (no ASA)", "setting": "[1]; 10 mM ASA, 750 V/cm, p 0.0011", "result": 3.82, "unit": "fold"},
      {"measurement": "increase in fluorescence magnitude relative to calcein at same field (no ASA)", "setting": "[1]; 10 mM ASA, 1000 V/cm, p 0.0014", "result": 3.57, "unit": "fold"},
      {"measurement": "increase in fluorescence magnitude relative to calcein at same field (no ASA)", "setting": "[1]; 10 mM ASA, 1385 V/cm, p 0.0066", "result": 3.18, "unit": "fold"},
      {"measurement": "increase in internalized calcein vs control (calcein, no ASA or pulses)", "setting": "[1]; 10 mM ASA, no pulses, p<0.0001", "result": 5, "unit": "fold"},
      {"measurement": "mean fluorescence magnitude compared to samples exposed to electric fields alone (no ASA)", "setting": "[1]; 1 and 5 mM ASA, with electric fields", "result": "not significantly different"},
      {"measurement": "average fluorescent magnitude", "setting": "[1]; calcein in 10 mM ASA (pH 4.40), no pulses", "result": "4.28 (SEM=0.63)"}
    ]}
  ]
}
